Molecular target: human PCSK9 (Homo sapiens, UniProt Q8NBP7)
Assay: PCSK9 ligand binding TR-FRET assay (interference with binding of human PCSK9 to human LDLR)
Conditions: for Max % inhibition: PCSK9 FRET assay, efficacy (Amax), 100% = 1 uM unlabeled human PCSK9, 0% = DMSO; for IC50: TR-FRET, human PCSK9 Alexa Fluor 647 / human LDLR extracellular domain-Europium Kryptate, read-out: PCSK9 FRET Assay IC50
How it was run: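 Threefold compound dilutions were pre-incubated 30 min with PCSK9, after which 4 nM Europium Kryptate-tagged human LDLR ectodomain was added for a further 2 h.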

Chain of human PCSK9 (Q8NBP7 153-692): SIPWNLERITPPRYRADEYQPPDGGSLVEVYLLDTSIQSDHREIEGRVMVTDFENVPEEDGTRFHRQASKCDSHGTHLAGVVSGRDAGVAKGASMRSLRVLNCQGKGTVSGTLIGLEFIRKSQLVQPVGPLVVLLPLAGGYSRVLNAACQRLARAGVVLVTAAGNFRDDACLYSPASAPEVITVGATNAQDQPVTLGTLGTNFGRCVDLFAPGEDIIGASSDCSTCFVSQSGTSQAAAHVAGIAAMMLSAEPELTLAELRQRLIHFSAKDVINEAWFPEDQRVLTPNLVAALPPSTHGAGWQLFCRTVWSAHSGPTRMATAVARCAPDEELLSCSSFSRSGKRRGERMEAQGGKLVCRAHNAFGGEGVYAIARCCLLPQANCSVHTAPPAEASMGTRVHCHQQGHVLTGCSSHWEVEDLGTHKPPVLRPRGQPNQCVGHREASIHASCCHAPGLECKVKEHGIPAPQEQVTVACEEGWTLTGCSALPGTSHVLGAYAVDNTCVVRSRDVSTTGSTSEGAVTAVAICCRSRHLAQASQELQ
Chain of human PCSK9 (Q8NBP7 31-152 partner limits assumed): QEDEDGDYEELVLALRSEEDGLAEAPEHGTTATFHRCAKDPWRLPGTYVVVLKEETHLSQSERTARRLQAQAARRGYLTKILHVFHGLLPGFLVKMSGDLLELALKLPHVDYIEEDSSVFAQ

Compound	Max % inhibition [%]	IC50 [nM]
COC[C@@H]1NC(=O)[C@H](CCC(=O)OC(C)(C)C)N(Cc2ccc(Cl)cc2Oc2ccc(-c3cnc(CN(C)C)n3C)cc2)C(=O)C[C@@H](Cc2ccccc2)C(=O)N(C)[C@H]2CCCC[C@@H]2NC(=O)C[C@H](Cc2ccc(Cl)cc2)N(C)C1=O [Compound 46, tert-butyl 3-((4S,7S,10S,14R,16aS,20aS)-14-benzyl-11-(4-chloro-2-(4-(2-((dimethylamino)methyl)-1-methyl-1H-imidazol-5-yl)phenoxy)benzyl)-4-(4-chlorobenzyl)-7-(methoxymethyl)-5,16-dimethyl-2,6,9,12,15-pentaoxodocosahydrobenzo[l][1,4,7,11,14]pentaazacyclooctadecin-10-yl]propanoate]	96.56	2.7
COC[C@@H]1NC(=O)[C@H](C)N(Cc2ccc(Cl)cc2Oc2ccc(-c3cnc(CN(C)C)n3C)cc2)C(=O)C[C@@H](Cc2ccc(F)cn2)C(=O)N(C)[C@@H](C)CNC(=O)C[C@H](Cc2ccc(Cl)cc2)N(C)C1=O [Compound 45, (2S,5S,8S,13S,16R)-1-(4-chloro-2-(4-(2-((dimethylamino)methyl)-1-methyl-1H-imidazol-5-yl)phenoxy)benzyl)-8-(4-chlorobenzyl)-16-((5-fluoropyridin-2-yl)methyl)-5-(methoxymethyl)-2,7,13,14-tetramethyl-1,4,7,11,14-pentaazacyclooctadecane-3,6,10,15,18-pentaone]	95.96	2.2
COC[C@@H]1NC(=O)[C@@H](C)N(Cc2ccc(Cl)cc2Oc2ccc(-c3cnc(CN(C)C)n3C)cc2)C(=O)C[C@@H](Cc2ccccc2)C(=O)N(C)[C@H]2CCOC[C@@H]2NC(=O)C[C@H](Cc2ccc(Cl)cc2)N(C)C1=O [Compound 294, (4S,7S,10R,14R,16aS,20aR)-14-benzyl-11-(4-chloro-2-(4-(2-((dimethylamino)methyl)-1-methyl-1H-imidazol-5-yl)phenoxy)benzyl)-4-(4-chlorobenzyl)-7-(methoxymethyl)-5,10,16-trimethyltetradecahydro-1H-pyrano[3,4-l][1,4,7,11,14]pentaazacyclooctadecine-2,6,9,12,15(3H)-pentaone]	55.44	105
COC[C@@H]1NC(=O)[C@H](CC(F)(F)F)N(Cc2ccc(Cl)cc2Oc2ccc(-c3cnc(CN(C)C)n3C)cc2)C(=O)C[C@@H](Cc2ccccc2)C(=O)N(C)[C@@H](C)CNC(=O)C[C@H](Cc2ccc(Cl)cc2)N(C)C1=O [Compound 37, (2S,5S,8S,13S,16R)-16-benzyl-1-(4-chloro-2-(4-(2-((dimethylamino)methyl)-1-methyl-1H-imidazol-5-yl)phenoxy)benzyl)-8-(4-chlorobenzyl)-5-(methoxymethyl)-7,13,14-trimethyl-2-(2,2,2-trifluoroethyl)-1,4,7,11,14-pentaazacyclooctadecane-3,6,10,15,18-pentaone]	100.65	2.3
COC[C@@H]1NC(=O)[C@H](C)N(Cc2ccc(Cl)cc2Oc2ccc(-c3cnc4n3CCN(C(=O)[C@@H]3CCOC3)C4)cc2)C(=O)C[C@@H](Cc2ccccc2)C(=O)N(C)[C@@H](C)CNC(=O)C[C@H](Cc2ccc(Cl)cc2)N(C)C1=O [Compound 171, (2S,5S,8S,13S,16R)-16-benzyl-1-(4-chloro-2-(4-(7-((R)-tetrahydrofuran-3-carbonyl)-5,6,7,8-tetrahydroimidazo[1,2-a]pyrazin-3-yl)phenoxy)benzyl)-8-(4-chlorobenzyl)-5-(methoxymethyl)-2,7,13,14-tetramethyl-1,4,7,11,14-pentaazacyclooctadecane-3,6,10,15,18-pentaone]	91.76	3.1
COC[C@@H]1NC(=O)[C@H](CCCNC(=O)OC(C)(C)C)N(Cc2ccc(Cl)cc2Oc2ccc(-c3cnc(CN(C)C)n3C)cc2)C(=O)C[C@@H](Cc2ccccc2)C(=O)N(C)[C@H]2CCCC[C@@H]2NC(=O)C[C@H](Cc2ccc(Cl)cc2)N(C)C1=O [Compound 182, tert-butyl (3-((4S,7S,10S,14R,16aS,20aS)-14-benzyl-11-(4-chloro-2-(4-(2-((dimethylamino)methyl)-1-methyl-1H-imidazol-5-yl)phenoxy)benzyl)-4-(4-chlorobenzyl)-7-(methoxymethyl)-5,16-dimethyl-2,6,9,12,15-pentaoxodocosahydrobenzo[l][1,4,7,11,14]pentaazacyclooctadecin-10-yl)propyl)carbamate]	99.86	1.2
COC[C@@H]1NC(=O)[C@H](C)N(Cc2ccc(Cl)cc2Oc2ccc(-c3cnc(OC)nc3)cc2)C(=O)C[C@@H](Cc2ccccc2)C(=O)N(C)[C@@H](C)CNC(=O)C[C@H](Cc2ccc(Cl)cc2)N(C)C1=O [Compound 69, (2S,5S,8S,13S,16R)-16-benzyl-1-(4-chloro-2-(4-(2-methoxypyrimidin-5-yl)phenoxy)benzyl)-8-(4-chlorobenzyl)-5-(methoxymethyl)-2,7,13,14-tetramethyl-1,4,7,11,14-pentaazacyclooctadecane-3,6,10,15,18-pentaone]	64.09	43
COC[C@@H]1NC(=O)[C@H](C)N(Cc2ccc(Cl)cc2Oc2c(F)cc(-c3cnc(CN4CCCC4)n3C)cc2F)C(=O)C[C@@H](Cc2ccccc2)C(=O)N(C)[C@@H](C)CNC(=O)C[C@H](Cc2ccc(Cl)cc2)N(C)C1=O [Compound 298, (2S,5S,8S,13S,16R)-16-benzyl-1-(4-chloro-2-(2,6-difluoro-4-(1-methyl-2-(pyrrolidin-1-ylmethyl)-1H-imidazol-5-yl)phenoxy)benzyl)-8-(4-chlorobenzyl)-5-(methoxymethyl)-2,7,13,14-tetramethyl-1,4,7,11,14-pentaazacyclooctadecane-3,6,10,15,18-pentaone]	99.00	2.01
COC[C@@H]1NC(=O)[C@H](CCC(=O)N2CCOCC2)N(Cc2ccc(Cl)cc2Oc2ccc(-c3cnc(CN(C)C)n3C)cc2)C(=O)C[C@@H](Cc2ccccc2)C(=O)N(C)[C@@H](C)CNC(=O)C[C@H](Cc2ccc(Cl)cc2)N(C)C1=O [Compound 175, (2S,5S,8S,13S,16R)-16-benzyl-1-(4-chloro-2-(4-(2-((dimethylamino)methyl)-1-methyl-1H-imidazol-5-yl)phenoxy)benzyl)-8-(4-chlorobenzyl)-5-(methoxymethyl)-7,13,14-trimethyl-2-(3-morpholino-3-oxopropyl)-1,4,7,11,14-pentaazacyclooctadecane-3,6,10,15,18-pentaone]	102.55	5.8
COC[C@@H]1NC(=O)[C@H](C)N(Cc2ccc(Cl)cc2Oc2ccc(-c3cnc(CN4CCC4)n3C)cc2)C(=O)C[C@@H](Cc2ccccc2)C(=O)N(C)[C@@H](C)CNC(=O)C[C@H](Cc2ccc(Cl)cc2)N(C)C1=O [Compound 76, (2S,5S,8S,13S,16R)-1-(2-(4-(2-(azetidin-1-ylmethyl)-1-methyl-1H-imidazol-5-yl)phenoxy)-4-chlorobenzyl)-16-benzyl-8-(4-chlorobenzyl)-5-(methoxymethyl)-2,7,13,14-tetramethyl-1,4,7,11,14-pentaazacyclooctadecane-3,6,10,15,18-pentaone]	96.97	1
COC[C@@H]1NC(=O)[C@H](CC(=O)O)N(Cc2ccc(Cl)cc2Oc2ccc(-c3cnc(CN(C)C)n3C)cc2)C(=O)C[C@@H](Cc2ccccc2)C(=O)N(C)[C@@H](C)CNC(=O)C[C@H](Cc2ccc(Cl)cc2)N(C)C1=O [Compound 82, 2-((2S,5S,8S,13S,16R)-16-benzyl-1-(4-chloro-2-(4-(2-((dimethylamino)methyl)-1-methyl-1H-imidazol-5-yl)phenoxy)benzyl)-8-(4-chlorobenzyl)-5-(methoxymethyl)-7,13,14-trimethyl-3,6,10,15,18-pentaoxo-1,4,7,11,14-pentaazacyclooctadecan-2-yl)acetic acid]	99.99	1.3
COC[C@@H]1NC(=O)[C@H](CCS(C)(=O)=O)N(Cc2ccc(Cl)cc2Oc2ccc(-c3cnc(CN(C)C)n3C)cc2)C(=O)C[C@@H](Cc2ccccc2)C(=O)N(C)[C@@H](C)CNC(=O)C[C@H](Cc2ccc(Cl)cc2)N(C)C1=O [Compound 211, (2S,5S,8S,13S,16R)-16-benzyl-1-(4-chloro-2-(4-(2-((dimethylamino)methyl)-1-methyl-1H-imidazol-5-yl)phenoxy)benzyl)-8-(4-chlorobenzyl)-5-(methoxymethyl)-7,13,14-trimethyl-2-(2-(methylsulfonyl)ethyl)-1,4,7,11,14-pentaazacyclooctadecane-3,6,10,15,18-pentaone]	102.01	3.9
COC[C@@H]1NC(=O)[C@H](C)N(Cc2ccc(Cl)cc2Oc2ccc(-c3cnc(OC(C)C)n3C)cc2)C(=O)C[C@@H](Cc2ccccc2)C(=O)N(C)[C@@H](C)CNC(=O)C[C@H](Cc2ccc(Cl)cc2)N(C)C1=O [Compound 92, (2S,5S,8S,13S,16R)-16-benzyl-1-(4-chloro-2-(4-(2-isopropoxy-1-methyl-1H-imidazol-5-yl)phenoxy)benzyl)-8-(4-chlorobenzyl)-5-(methoxymethyl)-2,7,13,14-tetramethyl-1,4,7,11,14-pentaazacyclooctadecane-3,6,10,15,18-pentaone]	61.54	64.6
COC[C@@H]1NC(=O)[C@H](CCN(C)C)N(Cc2ccc(Cl)cc2Oc2ccc(-c3cnc(CN(C)C)n3C)cc2)C(=O)C[C@@H](Cc2ccccc2)C(=O)N(C)[C@H]2CCCC[C@@H]2NC(=O)C[C@H](Cc2ccc(Cl)cc2)N(C)C1=O [Compound 29, (4S,7S,10S,14R,16aS,20aS)-14-benzyl-11-(4-chloro-2-(4-(2-((dimethylamino)methyl)-1-methyl-1H-imidazol-5-yl)phenoxy)benzyl)-4-(4-chlorobenzyl)-10-(2-(dimethylamino)ethyl)-7-(methoxymethyl)-5,16-dimethylhexadecahydrobenzo[l][1,4,7,11,14]pentaazacyclooctadecine-2,6,9,12,15(3H)-pentaone]	94.90	0.6
